Reference: PMC12384096, “TabsPBP2, a Pheromone-Binding Protein Highly Expressed in Male Antennae of Tuta absoluta, Binds Sex Pheromones and Tomato Volatiles” (Biomolecules, 2025)

How the values were obtained:
[1] = target: TabsPBP2; assay: Competitive fluorescence binding assay with 1-NPN probe; design: species or system Tuta absoluta; conditions: competitive displacement of 1-NPN (2 µM), 2 μM TabsPBP2, pH 7.4; for Ki: calculated from IC50
Experimental: Fluorescence binding assays were performed on a Cary Eclipse Fluorescence Spectrophotometer (Agilent Technologies, Palo Alto, CA, USA) to quantify TabsPBP2’s binding affinity for sex pheromones and tomato volatiles. Using n-phenyl-1-naphthylamine (1-NPN) as a fluorescent probe (1 mM in methanol), 2 μM TabsPBP2 (in 50 mM Tris-HCl, pH 7.4) were titrated with 1-NPN (2–16 µM). Fluorescence was excited at 337 nm with emission scanned from 350 and 500 nm. Ligand binding affinities were measured via competitive assays with 1-NPN (2 µM). Titration ranges: 0.5–4 μM (sex pheromones) and 2–50 μM (tomato volatiles). The binding constant (K1-NPN) for 1-NPN was calculated, followed by calculation of the dissociation constant (Ki) from IC50 values using the equation: Ki = [IC50]/(1 + [1-NPN]/K1-NPN), where [1-NPN] represents the free concentration of 1-NPN.

[2] = system: T. absoluta females; design: method as in PMID 29404818; conditions: cited from earlier work
[3] = system: adult T. absoluta; design: method as in doi:10.1127/entomologia/2024/2399; conditions: cited from earlier work

Row | IC50 [1] | Ki [1] | SMILES | EAG responses in females [2] | behavioral effect on adult T. absoluta [3]
1 | 7.47 ± 1.2 µM | 5.5 ± 0.92 µM | CC1=CC2C(CC1)C2(C)C (stereo not shown) [2-carene, 2-Carene] | – | –
2 | 13.6 ± 1.85 µM | 11.4 ± 1.88 µM | C=C1CCC2(C(C)C)CC12 (stereo not shown) [sabinene, Sabinene] | – | –
3 | 9.98 ± 0.98 µM | 7.48 ± 0.57 µM | CC1=CCC2CC1C2(C)C (stereo not drawn) [α-pinene, α-Pinene] | – | –

The next lines start with the molecule.

Row | SMILES | IC50 [1] | Ki [1] | EAG responses in females [2] | behavioral effect on adult T. absoluta [3]
4 | CC/C=C\CCO [cis-3-hexen-l-ol, cis-3-Hexen-l-ol] | 19.5 ± 2.39 µM | 13.7 ± 1.9 µM | elicit EAG responses | –
5 | COC(=O)c1ccccc1O [methyl salicylate, Methyl salicylate] | 18.6 ± 1.38 µM | 13 ± 1.23 µM | elicit EAG responses | repel
6 | C=CC(=C)CCC=C(C)C [myrcene, Myrcene] | 6.22 ± 0.85 µM | 4.68 ± 0.66 µM | elicit EAG responses | repel
7 | CC1=CC=C(C(C)C)CC1 [α-terpinene, α-Terpinene] | 14.6 ± 5.16 µM | 10.2 ± 3.6 µM | – | –
